Experimental data reported in ChEMBL document CHEMBL1914289, “Discovery of novel Cobactin-T based matrix metalloproteinase inhibitors via a ring closing metathesis strategy” (Bioorg Med Chem Lett, 2011).
Values belong to the molecule of their own block, whether it stands above or below them.

Tests used:
[1] = molecular target: 72 kDa type IV collagenase (Homo sapiens, UniProt P08253); test: Inhibition of full length human MMP2 (amino acids 1 to 660) using acetyl-Cys(Eu)-Pro-Leu-Gly-Leu-Lys-(QSY7)-Ala-Arg-amide as substrate preincubated for 1 hrs before substrate addition measured after 15 mins by fluorimetry
[2] = molecular target: Matrix metalloproteinase-9 (Homo sapiens, UniProt P14780); test: Inhibition of human MMP9 catalytic domain (amino acids 107 to 446) using acetyl-Cys(Eu)-Pro-Leu-Gly-Leu-Lys-(QSY7)-Ala-Arg-amide as substrate preincubated for 1 hrs before substrate addition measured after 15 mins by fluorimetry
[3] = molecular target: T1, Interstitial collagenase (Homo sapiens, UniProt P03956); test: Inhibition of human MMP1 catalytic domain (amino acids 100 to 262) using acetyl-Cys(Eu)-Pro-Leu-Gly-Leu-Lys-(QSY7)-Ala-Arg-amide as substrate preincubated for 1 hrs before substrate addition measured after 15 mins by fluorimetry
T1 sequence (P03956 whole entry): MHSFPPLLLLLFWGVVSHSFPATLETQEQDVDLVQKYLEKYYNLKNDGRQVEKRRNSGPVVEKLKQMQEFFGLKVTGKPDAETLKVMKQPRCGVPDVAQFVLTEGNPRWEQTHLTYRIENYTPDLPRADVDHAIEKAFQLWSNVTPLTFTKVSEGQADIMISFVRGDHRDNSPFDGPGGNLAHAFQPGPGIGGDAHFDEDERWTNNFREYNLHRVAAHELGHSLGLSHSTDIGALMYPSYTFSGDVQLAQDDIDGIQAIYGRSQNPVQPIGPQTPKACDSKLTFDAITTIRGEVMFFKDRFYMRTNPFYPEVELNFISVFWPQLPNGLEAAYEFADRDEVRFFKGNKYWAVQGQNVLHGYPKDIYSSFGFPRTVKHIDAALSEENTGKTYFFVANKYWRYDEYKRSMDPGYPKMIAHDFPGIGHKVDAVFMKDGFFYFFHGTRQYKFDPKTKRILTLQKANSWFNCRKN

[4] = molecular target: Stromelysin-1 (Homo sapiens, UniProt P08254); test: Inhibition of human MMP3 catalytic domain (amino acids 100 to 265) using acetyl-Cys(Eu)-Pro-Leu-Gly-Leu-Lys-(QSY7)-Ala-Arg-amide as substrate preincubated for 1 hrs before substrate addition measured after 15 mins by fluorimetry
[5] = molecular target: Collagenase 3 (Homo sapiens, UniProt P45452); test: Inhibition of human MMP13 catalytic domain (amino acids 103 to 268) using acetyl-Cys(Eu)-Pro-Leu-Gly-Leu-Lys-(QSY7)-Ala-Arg-amide as substrate preincubated for 1 hrs before substrate addition measured after 15 mins by fluorimetry
[6] = molecular target: MMP-2/MMP-9 (Homo sapiens) (UniProt P08253+P14780); test: Selectivity ratio of IC50 for full length human MMP2 (amino acids 1 to 660) to IC50 for human MMP9 catalytic domain (amino acids 107 to 446)
[7] = species on record: Homo sapiens; test: Selectivity ratio of IC50 for human MMP3 catalytic domain (amino acids 100 to 265) to IC50 for full length human MMP2 (amino acids 1 to 660)
[8] = species on record: Homo sapiens; test: Selectivity ratio of IC50 for human MMP3 catalytic domain (amino acids 100 to 265) to IC50 for human MMP9 catalytic domain (amino acids 107 to 446)
[9] = Cmax in rat at 0.5 mg/kg, iv; type: ADME, organism-based; design: dose 0.5 mg/kg, route intravenous; conditions: in vivo
[10] = Half life in rat at 0.5 mg/kg, iv; type: ADME, organism-based; design: dose 0.5 mg/kg, route intravenous; conditions: in vivo
[11] = test system: Rattus norvegicus; test: (§1) AUC in rat at 0.5 mg/kg, iv; type: ADME, organism-based, Plasma; design: dose 0.5 mg/kg, route intravenous; conditions: in vivo
[12] = Volume of distribution at steady state in rat at 0.5 mg/kg, iv; type: ADME, organism-based; design: dose 0.5 mg/kg, route intravenous; conditions: in vivo, read-out: Vdss
[13] = Cmax in mouse at 10 mg/kg, po; type: ADME, organism-based; design: dose 10 mg/kg, route oral; conditions: in vivo
[14] = Half life in mouse at 10 mg/kg, po; type: ADME, organism-based; design: dose 10 mg/kg, route oral; conditions: in vivo
[15] = molecular target: Voltage-gated inwardly rectifying potassium channel KCNH2 (Homo sapiens, UniProt Q12809); test: Binding affinity to human Erg at 10 uM
[16] = molecular target: CYP3A4 (Homo sapiens, UniProt P08684); test: Inhibition of CYP 3A4 at 1 uM; type: ADME
[17] = molecular target: CYP2D6 (Homo sapiens, UniProt P10635); test: Inhibition of CYP 2D6 at 1 uM; type: ADME
[18] = test system: Salmonella typhimurium; test: Induction of mutagenicity in Salmonella Typhimurium by AMES test; type: toxicity, organism-based; conditions: salmonella enterica subsp. enterica serovar typhimurium
[19] = as §1; type: ADME, organism-based, Plasma; design: dose 0.5 mg/kg, route intravenous; conditions: plasma
[20] = Clearance in rat at 0.5 mg/kg, iv; type: ADME, organism-based; design: dose 0.5 mg/kg, route intravenous; conditions: in vivo

Chain of Stromelysin-1 (P08254 whole entry, the tested form may be a part): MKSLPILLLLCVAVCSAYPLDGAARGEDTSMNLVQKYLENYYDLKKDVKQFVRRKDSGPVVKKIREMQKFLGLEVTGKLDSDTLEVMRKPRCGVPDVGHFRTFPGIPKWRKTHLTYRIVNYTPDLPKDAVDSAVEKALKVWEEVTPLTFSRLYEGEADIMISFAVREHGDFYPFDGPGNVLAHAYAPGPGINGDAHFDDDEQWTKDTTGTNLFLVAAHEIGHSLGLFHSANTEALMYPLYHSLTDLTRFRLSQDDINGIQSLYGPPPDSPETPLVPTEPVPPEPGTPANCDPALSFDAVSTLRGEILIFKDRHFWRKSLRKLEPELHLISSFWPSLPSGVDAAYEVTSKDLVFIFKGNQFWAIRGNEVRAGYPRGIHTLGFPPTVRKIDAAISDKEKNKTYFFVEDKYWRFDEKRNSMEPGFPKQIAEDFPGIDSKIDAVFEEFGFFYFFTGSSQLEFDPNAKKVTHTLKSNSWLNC
Chain of 72 kDa type IV collagenase (P08253 whole entry, the tested form may be a part): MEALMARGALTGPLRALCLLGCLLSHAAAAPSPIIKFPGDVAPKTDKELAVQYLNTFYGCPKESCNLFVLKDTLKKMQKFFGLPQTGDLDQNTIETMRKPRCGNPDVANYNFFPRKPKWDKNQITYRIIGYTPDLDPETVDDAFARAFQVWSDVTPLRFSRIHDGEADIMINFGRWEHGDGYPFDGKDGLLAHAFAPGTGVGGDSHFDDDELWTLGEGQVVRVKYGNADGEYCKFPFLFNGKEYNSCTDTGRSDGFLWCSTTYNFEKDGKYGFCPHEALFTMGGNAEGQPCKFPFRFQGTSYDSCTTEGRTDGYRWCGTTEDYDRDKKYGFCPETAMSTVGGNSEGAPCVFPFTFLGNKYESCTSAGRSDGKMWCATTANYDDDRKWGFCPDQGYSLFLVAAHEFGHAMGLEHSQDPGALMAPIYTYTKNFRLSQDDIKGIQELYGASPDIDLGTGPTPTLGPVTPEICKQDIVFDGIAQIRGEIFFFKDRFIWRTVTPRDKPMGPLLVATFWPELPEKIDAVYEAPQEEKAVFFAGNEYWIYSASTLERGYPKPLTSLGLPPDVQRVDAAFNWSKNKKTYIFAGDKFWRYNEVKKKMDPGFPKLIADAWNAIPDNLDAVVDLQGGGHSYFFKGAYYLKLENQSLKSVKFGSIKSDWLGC
Chain of Matrix metalloproteinase-9 (P14780 whole entry, the tested form may be a part): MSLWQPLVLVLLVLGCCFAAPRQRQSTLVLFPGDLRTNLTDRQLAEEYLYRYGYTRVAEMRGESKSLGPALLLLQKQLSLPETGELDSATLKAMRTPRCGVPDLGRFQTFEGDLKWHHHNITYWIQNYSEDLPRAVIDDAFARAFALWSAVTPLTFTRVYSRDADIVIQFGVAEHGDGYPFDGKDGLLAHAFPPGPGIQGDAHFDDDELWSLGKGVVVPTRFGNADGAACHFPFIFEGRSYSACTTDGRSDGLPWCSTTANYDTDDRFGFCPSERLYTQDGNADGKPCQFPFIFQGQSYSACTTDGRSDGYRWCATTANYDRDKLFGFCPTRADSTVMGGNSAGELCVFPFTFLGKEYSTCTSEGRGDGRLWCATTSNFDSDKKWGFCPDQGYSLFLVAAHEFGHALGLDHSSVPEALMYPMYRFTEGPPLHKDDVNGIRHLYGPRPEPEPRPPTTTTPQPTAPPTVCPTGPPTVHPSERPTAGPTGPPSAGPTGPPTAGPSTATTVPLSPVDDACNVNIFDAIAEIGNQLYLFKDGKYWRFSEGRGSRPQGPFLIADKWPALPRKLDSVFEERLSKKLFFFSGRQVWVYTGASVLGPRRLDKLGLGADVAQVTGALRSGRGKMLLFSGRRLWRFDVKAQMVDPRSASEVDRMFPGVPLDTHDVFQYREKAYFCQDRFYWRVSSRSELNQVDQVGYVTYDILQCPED
Chain of Voltage-gated inwardly rectifying potassium channel KCNH2 (Q12809 whole entry): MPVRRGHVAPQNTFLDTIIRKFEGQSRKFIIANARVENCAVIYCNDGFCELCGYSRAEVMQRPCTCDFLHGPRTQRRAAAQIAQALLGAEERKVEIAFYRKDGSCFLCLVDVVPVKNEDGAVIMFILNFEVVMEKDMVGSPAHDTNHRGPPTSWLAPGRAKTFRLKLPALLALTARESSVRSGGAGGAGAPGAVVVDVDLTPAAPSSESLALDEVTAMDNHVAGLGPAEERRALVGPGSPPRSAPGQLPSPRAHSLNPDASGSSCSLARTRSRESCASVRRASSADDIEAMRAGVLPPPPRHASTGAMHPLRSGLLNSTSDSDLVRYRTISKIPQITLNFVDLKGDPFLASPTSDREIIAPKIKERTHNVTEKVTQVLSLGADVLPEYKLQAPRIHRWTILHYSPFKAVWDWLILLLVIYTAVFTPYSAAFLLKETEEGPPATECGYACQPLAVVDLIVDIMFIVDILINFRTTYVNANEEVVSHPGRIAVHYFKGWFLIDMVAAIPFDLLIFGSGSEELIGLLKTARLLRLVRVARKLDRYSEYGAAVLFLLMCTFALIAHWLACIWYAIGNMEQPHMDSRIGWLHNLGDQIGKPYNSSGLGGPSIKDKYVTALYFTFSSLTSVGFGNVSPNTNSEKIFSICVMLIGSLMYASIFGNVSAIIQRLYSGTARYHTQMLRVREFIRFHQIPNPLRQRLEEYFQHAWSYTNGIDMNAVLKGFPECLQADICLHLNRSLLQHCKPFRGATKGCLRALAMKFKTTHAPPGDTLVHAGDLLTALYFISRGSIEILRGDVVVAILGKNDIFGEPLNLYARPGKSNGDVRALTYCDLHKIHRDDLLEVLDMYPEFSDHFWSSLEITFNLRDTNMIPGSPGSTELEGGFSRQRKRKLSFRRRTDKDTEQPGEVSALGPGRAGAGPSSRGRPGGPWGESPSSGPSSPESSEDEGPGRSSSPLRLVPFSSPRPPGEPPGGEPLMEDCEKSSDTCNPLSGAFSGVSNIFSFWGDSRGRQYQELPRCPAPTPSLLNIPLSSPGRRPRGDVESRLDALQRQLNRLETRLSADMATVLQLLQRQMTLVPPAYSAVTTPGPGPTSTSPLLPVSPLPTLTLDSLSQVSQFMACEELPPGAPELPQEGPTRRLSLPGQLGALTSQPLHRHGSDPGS
Chain of CYP2D6 (P10635 whole entry): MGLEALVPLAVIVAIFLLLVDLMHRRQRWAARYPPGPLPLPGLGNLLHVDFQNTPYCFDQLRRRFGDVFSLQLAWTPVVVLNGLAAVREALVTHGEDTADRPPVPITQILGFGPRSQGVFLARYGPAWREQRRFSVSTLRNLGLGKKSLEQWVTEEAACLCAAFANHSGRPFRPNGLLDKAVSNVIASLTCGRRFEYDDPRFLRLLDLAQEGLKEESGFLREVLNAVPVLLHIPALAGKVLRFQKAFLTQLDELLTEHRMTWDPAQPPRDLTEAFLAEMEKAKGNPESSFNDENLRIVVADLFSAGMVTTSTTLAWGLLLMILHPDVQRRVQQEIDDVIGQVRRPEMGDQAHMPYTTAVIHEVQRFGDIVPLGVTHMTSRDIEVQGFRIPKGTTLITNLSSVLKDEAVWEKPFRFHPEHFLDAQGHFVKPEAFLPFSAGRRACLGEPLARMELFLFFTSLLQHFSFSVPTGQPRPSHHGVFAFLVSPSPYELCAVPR
Chain of CYP3A4 (P08684 whole entry): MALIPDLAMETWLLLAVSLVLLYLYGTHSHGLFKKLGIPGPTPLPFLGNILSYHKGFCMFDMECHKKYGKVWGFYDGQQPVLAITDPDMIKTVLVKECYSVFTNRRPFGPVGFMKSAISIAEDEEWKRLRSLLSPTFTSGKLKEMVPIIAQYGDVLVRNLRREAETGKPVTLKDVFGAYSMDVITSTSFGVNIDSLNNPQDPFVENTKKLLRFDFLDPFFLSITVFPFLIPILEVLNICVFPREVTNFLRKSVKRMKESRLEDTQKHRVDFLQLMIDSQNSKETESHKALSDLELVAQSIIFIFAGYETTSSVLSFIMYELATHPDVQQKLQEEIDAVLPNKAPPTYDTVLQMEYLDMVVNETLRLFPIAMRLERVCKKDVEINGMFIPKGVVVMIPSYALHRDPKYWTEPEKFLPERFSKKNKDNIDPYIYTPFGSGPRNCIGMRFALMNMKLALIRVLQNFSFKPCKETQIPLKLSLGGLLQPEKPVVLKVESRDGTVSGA

- IC50 [1]: 85 nM
- IC50 [2]: 1510 nM
SMILES: O=C1[C@H](NS(=O)(=O)c2ccc(-c3ccc(Cl)cc3)cc2)CC=CCN1O

- IC50 [1]: 0.39 nM
- IC50 [2]: 0.22 nM
- IC50 [3]: > 1000 nM
- IC50 [4]: 90 nM
- IC50 [5]: 0.7 nM
- Ratio IC50 [6]: 2
- Ratio IC50 [7]: 100
- Ratio IC50 [8]: 100
- Cmax [9]: 4.4 µM
- half-life [10]: 2 h
- AUC [11]: 1831 ng·h/mL
- Vd [12]: 1.4 L/kg
- Cmax [13]: 38.3 µM
- half-life [14]: 1 h
- inhibition at 1 µM [16]: < 50%
- inhibition at 1 µM [17]: < 50%
SMILES: O=C1[C@H](N(CCN2CCOCC2)S(=O)(=O)c2ccc(Oc3ccc(Cl)cc3)cc2)CC=CCN1O
- Activity [15]: < 50%
- Activity [18]: Non-toxic

- IC50 [1]: 1 nM
- IC50 [2]: 2 nM
SMILES: O=C1[C@H](NS(=O)(=O)c2ccc(Oc3ccccc3)cc2)CC=CCN1O

- IC50 [1]: 2 nM
- IC50 [2]: 2 nM
SMILES: O=C1[C@H](NS(=O)(=O)c2ccc(Oc3ccc(C(F)(F)F)cc3)cc2)CC=CCN1O

- IC50 [1]: 2.4 nM
- IC50 [2]: 0.8 nM
- Ratio IC50 [6]: 2
SMILES: Cc1ccc(C#Cc2ccc(S(=O)(=O)N(CCN3CCOCC3)[C@@H]3CC=CCN(O)C3=O)s2)cc1

- IC50 [1]: 3.7 nM
- IC50 [2]: 5.9 nM
SMILES: O=C1[C@H](NS(=O)(=O)c2ccc(Oc3ccc(Cl)cc3)cc2)CCCCN1O

- IC50 [1]: 2 nM
- IC50 [2]: 1 nM
SMILES: COc1ccc(Oc2ccc(S(=O)(=O)N[C@@H]3CC=CCN(O)C3=O)cc2)cc1

- IC50 [1]: 0.57 nM
- IC50 [2]: 0.58 nM
- IC50 [3]: > 1000 nM
- IC50 [4]: 86 nM
- IC50 [5]: 0.4 nM
- Ratio IC50 [7]: 100
- Ratio IC50 [8]: 100
- Cmax [9]: 4.6 µM
- half-life [10]: 14 h
- AUC [19]: 1230 ng·h/mL
- Vd [12]: 3.3 L/kg
- clearance [20]: 7 mL/min/kg
- inhibition at 1 µM [16]: < 50%
- inhibition at 1 µM [17]: < 50%
SMILES: O=C1[C@H](NS(=O)(=O)c2ccc(Oc3ccc(Cl)cc3)cc2)CC=CCN1O
- Activity [15]: < 50%
- Activity [18]: Non-toxic

- IC50 [1]: 2320 nM
- IC50 [2]: 5090 nM
SMILES: O=C(N[C@@H]1CC=CCN(O)C1=O)c1ccc(Oc2ccc(Cl)cc2)cc1

- IC50 [1]: 11 nM
- IC50 [2]: 16 nM
SMILES: O=C1[C@H](NS(=O)(=O)c2ccc(-c3ccc(Cl)cc3)s2)CC=CCN1O

- IC50 [1]: 1600 nM
- IC50 [2]: 1120 nM
SMILES: O=C1[C@@H](NS(=O)(=O)c2ccc(Oc3ccc(Cl)cc3)cc2)CC=CCN1O

- IC50 [1]: 3 nM
- IC50 [2]: 12 nM
SMILES: O=C1[C@H](NS(=O)(=O)c2ccc(Oc3ccncc3)cc2)CC=CCN1O

- IC50 [1]: 2 nM
- IC50 [2]: 1.3 nM
SMILES: CC1=CC[C@@H](NS(=O)(=O)c2ccc(Oc3ccc(Cl)cc3)cc2)C(=O)N(O)C1

- Ratio IC50 [6]: 2
SMILES: O=C1[C@H](N(CCN2CCCCC2)S(=O)(=O)c2ccc(Oc3ccc(Cl)cc3)cc2)CC=CCN1O

- IC50 [1]: 16 nM
- IC50 [2]: 17 nM
SMILES: O=C1[C@H](N(CCN2CCOCC2)S(=O)(=O)c2ccc(-c3ccc(Cl)cc3)s2)CC=CCN1O

- IC50 [1]: 0.53 nM
- IC50 [2]: 0.46 nM
- IC50 [3]: > 1000 nM
- IC50 [4]: 39 nM
- IC50 [5]: 0.2 nM
- Ratio IC50 [7]: 100
- Ratio IC50 [8]: 100
SMILES: O=C1[C@H](NS(=O)(=O)c2ccc(Oc3ccc(Cl)cc3)cc2)CC=C(CN2CCOCC2)CN1O

- IC50 [2]: 11 nM
- IC50 [3]: > 1000 nM
- IC50 [4]: 493 nM
- IC50 [5]: 3 nM
- Ratio IC50 [7]: 100
- Ratio IC50 [8]: 100
SMILES: COc1ccc(-c2ccc(S(=O)(=O)N[C@@H]3CC=CCN(O)C3=O)s2)cc1

- Ratio IC50 [6]: 2
SMILES: CN1CCN(CCN([C@@H]2CC=CCN(O)C2=O)S(=O)(=O)c2ccc(Oc3ccc(Cl)cc3)cc2)CC1

- IC50 [1]: 7 nM
- IC50 [2]: 11 nM
SMILES: Cc1ccc(-c2ccc(S(=O)(=O)N(CCN3CCOCC3)[C@@H]3CC=CCN(O)C3=O)s2)cc1

- IC50 [1]: 4 nM
- IC50 [2]: 9 nM
SMILES: Cc1ccc(-c2ccc(S(=O)(=O)N[C@@H]3CC=CCN(O)C3=O)s2)cc1

- IC50 [1]: > 1000 nM
- IC50 [2]: > 1000 nM
SMILES: O=C1NCC=CC[C@H]1NS(=O)(=O)c1ccc(Oc2ccc(Cl)cc2)cc1
